What all share (format): cell-based
In one series the target is HiBiT tagged CK1α (Homo sapiens, UniProt P48729+Q96SW2). Put plainly: CK1α degradation assay (HiBiT assay). The settings on record: 20 hours; for DC50: concentration at 50% CK1α degradation; for Dmax: HT-1080, HT-1080 cells. The essentials:
(§1)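 HT-1080 cells stably expressing wild-type CRBN, GSPT1A(1-138)/G575N and HiBiT-tagged CK1α or GSPT1, ~10,000/well, treated with compound from 3.162×10^-4 μM to 10 μM (3.16-fold steps). HiBiT luminescence normalized to DMSO as percent of control.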
(In general: HiBiT is a short tag that completes a luciferase, so light tracks the accessible tagged protein.)

In the next series the target is HiBiT tagged GSPT1 (Homo sapiens, UniProt P15170+Q96SW2). Put plainly: GSPT1 degradation assay (HiBiT assay). The conditions noted are these: 20 hours, maximum GSPT1 degradation; for Dmax: HT-1080, HT-1080 cells. The method, boiled down:
as §1

In the next series the test system is MV4-11 cells. Put plainly: MV4-11 cell proliferation assay (CTG cell viability). The settings on record: 120 hours, read-out: CTG cell viability assay_MV4-11: IC50. The method, then: MV4-11 Cell Proliferation Assay
The following is an example of an assay that can be used to determine the dose-dependent, anti-proliferative activity of CK1α degradating compounds in an AML cell line such as MV4-11 (ATCC Cat #CRL-9591).
(§2) MV4-11 cells were seeded into a 384-well plate (Cat #3764, Corning) pre-spotted with DMSO or test compounds. Increasing concentrations of test compounds (ranging from 1×10^−3 μM to 10 μM at a 3.162-fold increment in a 10-point dose response assay; ranging from 3.162×10^−4 μM to 10 μM at a 3.162-fold increment in a 11-point dose response assay) or DMSO were dispensed into an empty 384-well plate using an a D300e digital dispenser (Tecan) or an Echo Acoustic Liquid Handler (Beckman Coulter). About 2,000 cells in 50 μL of culture media (IMDM plus 10% heat-inactivated FBS) were seeded per well. Assay plates were incubated at 37° C. with 5% CO2 for 120 hours. After that, 20 μL of the CellTiter-Glo Luminescent Cell Viability Assay Reagent (Cat #G7573, Promega) was added to each well and incubated at room temperature for 30 minutes. Luminescence was then measured with an EnVision plate reader (PerkinElmer) or a PHERAstar plate reader (BMG LABTECH). All cell growth inhibition curves were processed using Collaborative Drug Discovery Vault softwares (Burlingame, CA, www.collaborativedrug.com).
Cell viability reads in compound-treated wells were normalized to that of DMSO control and expressed as Percent of Control (PoC, y). A four Parameter Logistic Model was used to determine the compound's EC50 and DC50, using the following equation:
[formula] • A==lowest cell viability read normalized to DMSO control in response to compound treatment, as determined by curve fit • B=cell viability read in DMSO control • C=EC50 • D=Hill Slope • x=compound concentration • EC50=the concentration of compound when y=(B−A)/2 • IC50=the concentration of the compound when y=50% of DMSO control • y=cell viability read normalized to DMSO control Ymin=(A/B)*100% • Ymin represents the lowest cell viability % that can be achieved by the compound treatment in the assay.

A further series relates to KG-1a cells. Put plainly: KG-1a cell proliferation assay (CTG cell viability, counter screen for GSPT1-mediated cytotoxicity). The settings on record: 120 hours, lowest cell viability, highest concentration 10 μM.
Description: (§3) KG-1a Cell Proliferation Assay
(§4) On the other hand, most AML cell lines were reported to be sensitive to GSPT1 degradation induced by CC-885 or CC-90009 regardless of their p53 mutational status (Matyskiela et al., Nature (2016) 535:252-257; Surka et al., Blood (2021) 137 (5): 661-677). Because the subtle to moderate degradation of GSPT1 induced by CK1α degraders with mild activity towards GSPT1 might still result in toxicity in human, a counter screen using an AML cell line harboring p53 mutation such as KG-1a (ATCC Cat #CCL-246.1), was performed to determine the GSPT1-mediated cytotoxicity in vitro.
as §2, with “The following is an example of an assay that can be used to determine the potential GSPT1-dependent cytotoxcity of test compounds that degrade GSPT1. KG-1a cells” for “MV4-11 cells”, “[…]” for “1×10^−3 μM”, “[…]” for “3.162×10^−4 μM”, “with” for “with an”, “EnVision Multimode Plate Reader” for “EnVision plate reader”, “www.collaborativedrug.com). Cell viability reads in compound-treated wells were normalized to that of DMSO control and expressed as Percent of Control (PoC, y). A four Parameter Logistic Model was used to determine the compound's EC50 and DC50, using the following equation: […]” for “www.collaborativedrug.com).”
In general terms: Counterscreens check selectivity or assay interference.

Test in series [1]: as above
The settings on record: human, KG-1a cells (AML cell line harboring p53 mutation), lowest cell viability, highest concentration 10 μM, read-out: CTG cell viability assay KG1a: Ymin.
Description: as §3, §4
as §2, with “The following is an example of an assay that can be used to determine the potential GSPT1-dependent cytotoxcity of test compounds that degrade GSPT1. KG-1a cells” for “MV4-11 cells”, “[…]” for “1×10^−3 μM”, “[…]” for “3.162×10^−4 μM”, “with” for “with an”, “EnVision Multimode Plate Reader” for “EnVision plate reader”, “www.collaborativedrug.com). Cell viability reads in compound-treated wells were normalized to that of DMSO control and expressed as Percent of Control (PoC, y). A four Parameter Logistic Model was used to determine the compound's EC50 and DC50, using the following equation: […]” for “www.collaborativedrug.com).”

pIC50: −log10 of the molar value. Read-outs that look alike come from different tables or passages of the source.

The text below walks through data of patent publication US12673936B2, “Isoindolinone compounds, and uses thereof” (HANGZHOU GLUBIO PHARMACEUTICAL CO., LTD., priority 2021, dated 2026).

HiBiT tagged GSPT1, sequence (P15170 whole entry): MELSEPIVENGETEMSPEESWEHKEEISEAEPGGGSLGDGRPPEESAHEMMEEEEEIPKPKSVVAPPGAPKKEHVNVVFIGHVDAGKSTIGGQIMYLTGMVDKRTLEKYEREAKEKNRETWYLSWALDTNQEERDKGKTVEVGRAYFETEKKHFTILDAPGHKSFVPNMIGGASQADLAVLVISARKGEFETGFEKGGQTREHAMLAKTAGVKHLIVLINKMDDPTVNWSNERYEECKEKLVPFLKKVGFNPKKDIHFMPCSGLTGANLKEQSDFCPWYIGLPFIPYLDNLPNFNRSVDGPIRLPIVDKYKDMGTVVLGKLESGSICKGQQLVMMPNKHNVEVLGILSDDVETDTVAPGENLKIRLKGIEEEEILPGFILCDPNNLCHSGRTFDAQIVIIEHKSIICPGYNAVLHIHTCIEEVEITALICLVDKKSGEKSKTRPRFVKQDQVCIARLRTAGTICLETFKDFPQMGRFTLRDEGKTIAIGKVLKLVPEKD
HiBiT tagged GSPT1, sequence (Q96SW2 whole entry): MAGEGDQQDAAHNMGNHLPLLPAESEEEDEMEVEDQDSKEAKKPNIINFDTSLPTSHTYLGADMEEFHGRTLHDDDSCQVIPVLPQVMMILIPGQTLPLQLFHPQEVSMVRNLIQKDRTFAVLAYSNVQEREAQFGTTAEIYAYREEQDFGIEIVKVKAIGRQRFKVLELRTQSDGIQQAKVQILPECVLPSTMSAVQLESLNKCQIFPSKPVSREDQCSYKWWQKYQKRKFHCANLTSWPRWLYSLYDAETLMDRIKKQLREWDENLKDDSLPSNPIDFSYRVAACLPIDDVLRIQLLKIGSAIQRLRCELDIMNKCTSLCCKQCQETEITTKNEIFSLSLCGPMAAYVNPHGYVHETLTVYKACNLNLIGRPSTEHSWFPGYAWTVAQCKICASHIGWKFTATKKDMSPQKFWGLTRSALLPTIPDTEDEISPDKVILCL
HiBiT tagged GSPT1, sequence (Q16531 whole entry partner): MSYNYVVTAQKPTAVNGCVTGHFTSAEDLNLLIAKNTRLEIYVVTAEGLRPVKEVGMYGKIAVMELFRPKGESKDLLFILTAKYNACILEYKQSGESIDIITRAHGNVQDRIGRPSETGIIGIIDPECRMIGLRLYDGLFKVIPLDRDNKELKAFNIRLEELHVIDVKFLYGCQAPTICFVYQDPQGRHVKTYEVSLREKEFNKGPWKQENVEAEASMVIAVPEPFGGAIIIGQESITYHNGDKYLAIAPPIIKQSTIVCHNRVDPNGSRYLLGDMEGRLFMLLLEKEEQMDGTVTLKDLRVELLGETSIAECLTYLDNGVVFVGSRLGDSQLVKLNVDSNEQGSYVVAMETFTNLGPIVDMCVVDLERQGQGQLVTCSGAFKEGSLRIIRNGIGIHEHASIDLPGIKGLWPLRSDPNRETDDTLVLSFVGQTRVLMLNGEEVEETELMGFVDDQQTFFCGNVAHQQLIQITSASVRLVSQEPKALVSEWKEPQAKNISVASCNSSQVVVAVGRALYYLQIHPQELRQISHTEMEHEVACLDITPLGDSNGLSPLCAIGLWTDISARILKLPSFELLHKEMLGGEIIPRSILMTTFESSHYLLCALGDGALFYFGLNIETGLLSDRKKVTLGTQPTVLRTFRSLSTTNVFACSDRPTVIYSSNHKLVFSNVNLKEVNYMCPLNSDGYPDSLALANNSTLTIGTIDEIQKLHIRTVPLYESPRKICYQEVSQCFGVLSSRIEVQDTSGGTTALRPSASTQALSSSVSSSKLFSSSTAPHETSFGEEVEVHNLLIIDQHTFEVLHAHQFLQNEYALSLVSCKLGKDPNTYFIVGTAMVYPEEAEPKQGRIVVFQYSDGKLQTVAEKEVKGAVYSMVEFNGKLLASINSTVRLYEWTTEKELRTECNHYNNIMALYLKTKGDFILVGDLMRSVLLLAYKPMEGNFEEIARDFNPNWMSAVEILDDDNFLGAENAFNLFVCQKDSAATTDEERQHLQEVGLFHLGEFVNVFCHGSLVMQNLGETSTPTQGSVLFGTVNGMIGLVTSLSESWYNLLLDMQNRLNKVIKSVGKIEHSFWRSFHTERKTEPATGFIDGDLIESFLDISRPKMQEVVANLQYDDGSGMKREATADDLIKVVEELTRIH
HiBiT tagged CK1α, sequence (P48729 whole entry): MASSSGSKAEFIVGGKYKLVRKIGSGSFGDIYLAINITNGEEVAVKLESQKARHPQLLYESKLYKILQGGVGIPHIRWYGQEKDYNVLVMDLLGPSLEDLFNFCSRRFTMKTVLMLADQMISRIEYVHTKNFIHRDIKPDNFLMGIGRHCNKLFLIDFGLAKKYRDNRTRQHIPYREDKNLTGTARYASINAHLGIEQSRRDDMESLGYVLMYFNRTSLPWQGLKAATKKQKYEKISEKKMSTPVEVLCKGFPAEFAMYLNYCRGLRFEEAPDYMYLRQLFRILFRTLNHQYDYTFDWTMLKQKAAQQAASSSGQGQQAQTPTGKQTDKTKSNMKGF
HiBiT tagged CK1α, sequence (Q96SW2 whole entry): as the sequence (Q96SW2 whole entry) above
HiBiT tagged CK1α, sequence (Q16531 whole entry partner): as the sequence (Q16531 whole entry partner) above

As usually defined, the DC50 is the concentration giving 50% degradation. A higher DC50 goes with degradation only at high concentration. One may read the pIC50 as −log10 of the IC50, conventionally taken in molar units. On to `O=C1CCC(N2Cc3cc(C(=O)N[C@H](c4ccc(F)cc4)C4CCC4)ccc3C2=O)C(=O)N1` (stereo in doubt) [Compound 7, N—((*S)-cyclobutyl(4-fluorophenyl)methyl)-2-(2,6-dioxopiperidin-3-yl)-1-oxoisoindoline-5-carboxamide], for which the DC50 at HiBiT tagged CK1α (HT-1080 cells) is 81.7 nM. The “HiBiT CK1α: Dmax” value at HiBiT tagged CK1α (HT-1080 cells, maximum CK1α degradation) is listed as 71.8%. Also, the “HiBiT GSPT1: Dmax” value at HiBiT tagged GSPT1 (HT-1080 cells) is given as 28.6%. Besides, the pIC50 in the series on MV4-11 cells was 6.95. Also, the “CTG cell viability assay KG1a: Ymin” value with KG-1a cells is 91.7%.

In general, Dmax refers to the greatest extent of degradation seen. A high value points to deep degradation. In general, viability refers to a per cent measure of how many cells are alive, often set against a control. For `O=C1CCC(N2Cc3cc(C(=O)N[C@H](c4ccc(Cl)cc4)C4CC(F)(F)C4)ccc3C2=O)C(=O)N1` (stereo in doubt) [Compound 35, N-((*S)-(4-chlorophenyl)(3,3-difluorocyclobutyl)methyl)-2-(2,6-dioxopiperidin-3-yl)-1-oxoisoindoline-5-carboxamide], the Dmax at HiBiT tagged CK1α (maximum CK1α degradation) came to 67%; at HiBiT tagged GSPT1 it was 14.8%. At HiBiT tagged CK1α (HT-1080 cells), the DC50 was found to be 94.7 nM. Moreover, in the series with MV4-11 cells (Homo sapiens), the negative-log IC50 (pIC50) is 6.70. The viability at 120 h, 10 µM in series [1] worked out at 92.1%.

In the case of `O=C1CCC(N2Cc3cc(C(=O)NC(c4ccc(F)cc4)C4CC(F)(F)C4)ccc3C2=O)C(=O)N1` (stereo not drawn) [Compound 4, N-((3,3-difluorocyclobutyl)(4-fluorophenyl)methyl)-2-(2,6-dioxopiperidin-3-yl)-1-oxoisoindoline-5-carboxamide], the Dmax at HiBiT tagged CK1α (maximum CK1α degradation) was determined as 63.4%; at HiBiT tagged GSPT1, 31.1%. For the same molecule, the DC50 on HiBiT tagged CK1α (HT-1080 cells) was 183 nM. Also, the pIC50 in the series on MV4-11 cells (Homo sapiens) is 6.58. For the same molecule, the viability at 120 h, 10 µM in series [1] was determined as 90.9%.
